Series [1] has as its system Trypanosoma brucei brucei. As to the kind of experiment: Antiparasitic activity against Trypanosoma brucei brucei TREU667 infected in mouse assessed as decrease in parasite levels in brain at 10 mg/kg, ip administered as single dose on day 21 post infection by microscopic method. In kind it is functional, organism-based.
The subject of series [2] is Trypanosoma brucei brucei. As to the kind of experiment: Antiparasitic activity against Trypanosoma brucei brucei TREU667 infected in mouse assessed as decrease in parasitemia at 10 mg/kg, ip administered as single dose on day 21 post infection measured on day 41 to 42 by microscopic method. Type of series: functional, organism-based.
Series [3] relates to Trypanosoma brucei brucei. As to the kind of experiment: Antiparasitic activity against Trypanosoma brucei brucei TREU667 infected in mouse assessed as decrease in parasitemia at 10 mg/kg, ip administered as single dose on day 21 post infection measured on day 36 by microscopic method. Type of series: functional, organism-based.
Series [4] deals with Trypanosoma brucei brucei. Briefly: Antiparasitic activity against Trypanosoma brucei brucei TREU667 infected in mouse assessed as decrease in parasitemia at 10 mg/kg, ip administered as single dose on day 21 post infection measured on day 40 by microscopic method. Type of series: functional, organism-based.
In series [5] the test system is Trypanosoma brucei brucei. As to the kind of experiment: Antiparasitic activity against Trypanosoma brucei brucei TREU667 infected in mouse assessed as decrease in parasitemia at 10 mg/kg, ip administered as single dose on day 21 post infection measured on day 50 to 51 by microscopic method. In kind it is functional, organism-based.
Series [6] deals with Trypanosoma brucei brucei. Briefly: Antiparasitic activity against Trypanosoma brucei brucei TREU667 infected in mouse assessed as decrease in parasitemia at 10 mg/kg, ip administered as single dose on day 21 post infection measured on day 38 by microscopic method. Type of series: functional, organism-based.
Series [7] deals with Trypanosoma brucei brucei. As to the kind of experiment: Antiparasitic activity against Trypanosoma brucei brucei TREU667 infected in mouse assessed as decrease in parasite levels in peripheries at 10 mg/kg, ip administered as single dose on day 21 post infection by microscopic method. Type of series: functional, organism-based.
The subject of series [8] is Trypanosoma brucei brucei. Briefly: Antiparasitic activity against Trypanosoma brucei brucei TREU667 infected in mouse assessed as decrease in parasitemia at 10 mg/kg, ip administered as single dose on day 21 post infection measured on day 37 by microscopic method. Type of series: functional, organism-based.
Series [9] deals with Trypanosoma brucei brucei. Briefly: Antiparasitic activity against Trypanosoma brucei brucei TREU667 infected in mouse assessed as decrease in parasitemia at 10 mg/kg, ip administered as single dose on day 21 post infection measured on day 43 to 45 by microscopic method. In kind it is functional, organism-based.
In series [10] the test system is Trypanosoma brucei brucei. As to the kind of experiment: Antiparasitic activity against Trypanosoma brucei brucei TREU667 infected in mouse assessed as decrease in parasitemia at 10 mg/kg, ip administered as single dose on day 21 post infection measured on day 35 by microscopic method. In kind it is functional, organism-based.
The subject of series [11] is Trypanosoma brucei brucei. Briefly: Antiparasitic activity against Trypanosoma brucei brucei TREU667 infected in mouse assessed as decrease in parasitemia at 10 mg/kg, ip administered as single dose on day 21 post infection measured on day 34 by microscopic method. In kind it is functional, organism-based.
In series [12] the test system is Trypanosoma brucei brucei. Briefly: Antiparasitic activity against Trypanosoma brucei brucei TREU667 infected in mouse assessed as decrease in parasitemia at 10 mg/kg, ip administered as single dose on day 21 post infection measured on day 39 by microscopic method. In kind it is functional, organism-based.
The nature of series [13]: AUC (0 to 8 hrs) in mouse at 50 mg/kg, po by LC-MS analysis. In kind it is ADME, organism-based. Also on record: dose 50 mg/kg, time < 8 hr, route oral. The note with it: in vivo.
The nature of series [14]: Cmax in mouse at 50 mg/kg, po by LC-MS analysis. The note with it: in vivo. Set-up: dose 50 mg/kg, route oral. Type of series: ADME, organism-based.
The nature of series [15]: Ratio of drug level in brain to plasma in mouse at 5 mg/kg, ip after 1 hr by LC-MS analysis. Type of series: ADME, organism-based.
The subject of series [16] is Trypanosoma brucei rhodesiense. Briefly: Antiparasitic activity against Trypanosoma brucei rhodesiense STIB900 infected in Swiss-Webster mouse assessed as cure rate at 50 mg/kg, bid administered via oral gavage from day 2 to 5 post infection measured after 60 days by microscopic method relative to control. In kind it is functional.
In series [17] the test system is Liver. Briefly: Half life in human liver microsomes at 1.5 uM by LC-MS analysis. Type of series: ADME, microsome. A general note: Microsomes from liver hold many membrane-bound enzymes, among them those of drug oxidation.
The target of a further series is Cytochrome P450 3A4 (Homo sapiens, UniProt P08684). Briefly: Inhibition of human CYP3A4. In kind it is ADME.
The subject of another series is HepG2. Briefly: Cytotoxicity against human HepG2 cells assessed as growth inhibition after 48 hrs by Alamar blue assay. In kind it is cell-based. Conditions: hepg2, 48 h. For orientation: The colour change of resazurin is a common sign of viable cells or microbes.
The subject of series [18] is Trypanosoma brucei brucei. Briefly: Antiparasitic activity against Trypanosoma brucei brucei TREU667 infected in mouse assessed as decrease in parasitemia at 50 mg/kg, bid administered via oral gavage on day 21 to 34 post infection measured on day 41 to 42 by microscopic method. Type of series: functional, organism-based.
The test system of series [19] is Trypanosoma brucei brucei. As to the kind of experiment: Antiparasitic activity against Trypanosoma brucei brucei TREU667 infected in mouse assessed as decrease in parasitemia at 50 mg/kg, bid administered via oral gavage on day 21 to 34 post infection measured on day 34 by microscopic method. In kind it is functional, organism-based.
Series [20] concerns Trypanosoma brucei brucei. As to the kind of experiment: Antiparasitic activity against Trypanosoma brucei brucei BF427 assessed as growth inhibition after 48 hrs by Alamar blue assay. Type of series: functional. Conditions: BF427, 48 h.
Series [21] can be described thus: Cytotoxicity against human CRL8155 cells assessed as growth inhibition after 48 hrs by Alamar blue assay. Conditions: crl8155, 48 h. In kind it is cell-based.
Series [22] relates to Trypanosoma brucei brucei. As to the kind of experiment: Antiparasitic activity against Trypanosoma brucei brucei BF427 assessed as growth inhibition at EC50 pretreated for 96 hrs followed by compound washout measured after 10 days by light microscopic method. In kind it is functional.
For series [23], the system named is Trypanosoma brucei brucei. As to the kind of experiment: Antiparasitic activity against Trypanosoma brucei brucei BF427 assessed as growth inhibition at 4 times EC50 pretreated for 24 hrs followed by compound washout measured after 10 days by light microscopic method. In kind it is functional.
Series [24] concerns Trypanosoma brucei brucei. As to the kind of experiment: Antiparasitic activity against Trypanosoma brucei brucei BF427 assessed as growth inhibition at 4 times EC50 pretreated for 48 hrs followed by compound washout measured after 10 days by light microscopic method. Type of series: functional.
Series [25] has as its system Trypanosoma brucei brucei. Briefly: Antiparasitic activity against Trypanosoma brucei brucei BF427 assessed as growth inhibition at EC50 pretreated for 72 hrs followed by compound washout measured after 10 days by light microscopic method. Type of series: functional.
Series [26] has as its system Trypanosoma brucei brucei. As to the kind of experiment: Antiparasitic activity against Trypanosoma brucei brucei BF427 assessed as growth inhibition at 32 times EC50 pretreated for 24 hrs followed by compound washout measured after 10 days by light microscopic method. In kind it is functional.
In series [27] the test system is Liver. As to the kind of experiment: Half life in mouse liver microsomes at 1.5 uM by LC-MS analysis. Type of series: ADME, microsome.
The subject of series [28] is Trypanosoma brucei brucei. As to the kind of experiment: Antiparasitic activity against Trypanosoma brucei brucei BF427 assessed as growth inhibition at 16 times EC50 pretreated for 96 hrs followed by compound washout measured after 10 days by light microscopic method. In kind it is functional.
For series [29], the system named is Trypanosoma brucei brucei. Briefly: Antiparasitic activity against Trypanosoma brucei brucei BF427 assessed as growth inhibition at 16 times EC50 pretreated for 48 hrs followed by compound washout measured after 10 days by light microscopic method. In kind it is functional.
The subject of series [30] is Trypanosoma brucei rhodesiense. As to the kind of experiment: Antiparasitic activity against Trypanosoma brucei rhodesiense STIB900 assessed as growth inhibition after 48 hrs by Alamar blue assay. In kind it is functional. Conditions: STIB900, 48 h.
The test system of series [31] is Trypanosoma brucei brucei. As to the kind of experiment: Antiparasitic activity against Trypanosoma brucei brucei BF427 assessed as growth inhibition at 16 times EC50 pretreated for 72 hrs followed by compound washout measured after 10 days by light microscopic method. Type of series: functional.
The subject of a further series is L6. As to the kind of experiment: Cytotoxicity against rat L6 cells assessed as growth inhibition after 48 hrs by Alamar blue assay. Type of series: cell-based. The note with it: l6, 48 h.

Calls of active or inactive are those of the source. No cut-off for these calls is given here. Bounds are passed on as bounds.

Sequence of Cytochrome P450 3A4 (P08684 whole entry): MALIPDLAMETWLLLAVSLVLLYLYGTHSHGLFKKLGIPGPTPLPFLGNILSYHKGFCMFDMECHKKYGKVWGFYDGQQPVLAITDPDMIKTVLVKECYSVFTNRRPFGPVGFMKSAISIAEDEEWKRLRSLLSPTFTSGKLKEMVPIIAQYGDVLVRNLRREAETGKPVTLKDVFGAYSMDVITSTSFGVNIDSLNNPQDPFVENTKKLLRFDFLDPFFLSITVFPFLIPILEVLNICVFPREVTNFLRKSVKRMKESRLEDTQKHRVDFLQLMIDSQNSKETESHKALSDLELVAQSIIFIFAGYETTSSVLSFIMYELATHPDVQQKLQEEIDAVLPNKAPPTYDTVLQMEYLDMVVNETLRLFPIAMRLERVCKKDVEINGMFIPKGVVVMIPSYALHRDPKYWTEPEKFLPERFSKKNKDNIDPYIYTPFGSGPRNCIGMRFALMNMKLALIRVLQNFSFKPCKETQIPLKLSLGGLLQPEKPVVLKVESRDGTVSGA

For `N=C(N)c1ccc(/N=N/Nc2ccc(C(=N)N)cc2)cc1`, the outcome in [1] and in [5] was inactive. In addition, the outcome in [2], in series [3], in [4], in [6], in series [7] and in series [8] was Active. Also, the outcome in [9], in series [10], in series [11] and in series [12] was Active.

Usually AUC(0-t) stands for exposure summed from dosing to a finite time, without extrapolation to infinity. For orientation: Cmax means the peak of the concentration-time curve. As usually defined, the IC50 is the concentration at which inhibition is half-maximal. Higher therefore signals a need for much substance. As a reminder, the CC50 is the concentration giving 50% cytotoxicity. What is called EC50 is the concentration giving half of the maximal effect. In series [13], `Cc1cc(C)cc(COc2ccc(N(CCN)C(=O)c3ccc(Cl)cc3Cl)cc2)c1.Cl` showed an area under the curve AUC(0-t) at 8 h of 33.9 µM·h. Further, the Cmax in series [14] came out at 5.9 µM. The BPR in series [15] is recorded as 0.18. In addition, in series [16], the Activity is on record as 33%. Besides, in the series with Liver [17], the t1/2 is > 1 h. The molecule also displayed a 50% inhibitory concentration (IC50) against Cytochrome P450 3A4 of 0.003 µM. Moreover, the results for the cytotoxic concentration (CC50) (in the series on HepG2; in series [21]) were 4.1 µM and 2.45 µM, respectively. The result in [18] was inactive. In addition, the outcome in series [19] was Active. In addition, the EC50 in [20] worked out at 0.02 µM.

`N=C(N)c1ccc(OCCCCCOc2ccc(C(=N)N)cc2)cc1`: the “growth inhibition (GI)” value in series [22], in series [23], in series [24] and in series [25] was “Active” throughout.

For the molecule `Cl.NCCN(C(=O)c1ccc(Cl)cc1Cl)c1ccc(OCc2ccc(Cl)cc2)cc1`, the AUC(0-t) at 8 h in [13] was 3.42 µM·h. Moreover, the concentration in [14] peaked (Cmax) at 0.53 µM. Besides, the BPR in series [15] came out at 0.42. In addition, the Activity in series [16] is on record as 67 - 80%. The t1/2 in the series with Liver [17] was > 1 h; with Liver [27], 0.583 h. Moreover, the “growth inhibition (GI)” value in [26], in [28], in series [29] and in [31] was “Active” in each case. For the same molecule, the midpoint of inhibition at Cytochrome P450 3A4, the IC50, lay at 0.179 µM. The CC50 (in the series with HepG2; in [21]) was 2 µM each time. For the same molecule, the concentration for a half-maximal effect (EC50) in series [20] is 0.031 µM; in series [30], 0.005 µM.

As for `COc1ccc(N(CCN)C(=O)c2ccc(Cl)cc2Cl)cc1`, the half-maximal cytotoxic concentration (CC50) with L6 came to 56.1 µM. Besides, the half-maximal effective concentration (EC50) in series [20] was > 6 µM.

The values above are taken from ChEMBL document CHEMBL4000252, “Discovery of N-(2-aminoethyl)-N-benzyloxyphenyl benzamides: New potent Trypanosoma brucei inhibitors” (Bioorg Med Chem, 2017).
